Laboratory results reported in patent US4060652A (priority 1976, dated 1977).
“Also recorded” adds a separate entry of the source.

Key:
[1] = Lethality by paralysis of respiratory muscles in mice; settings: mouse, in vivo, iv
Source text: In experiments on albino mice, the dose of Tercuronium injected into the tail vein, that inhibited the symptom of turning from the lateral position in 50 percent of mice (ED50) was 0.06 mcM/kg (18 experiments); and 50 percent of mice perished from paralysis of the respiratory muscles (LD50) following an injection of 0.09 mcM/kg of Tercuronium.

[2] = test system: nervomuscular conduction, anterior tibial muscle; assay: Nervomuscular block in cats, indirect stimulation of anterior tibial muscle; format: in vivo
Method: The preparation was studied in acute experiments on cats, rabbits, mice and pigeons, in experiments on phrenico-diaphragm preparations of rats, and also on the straight muscle of a frog abdomen. The properties of Tercuronium were compared with those of α-tubocurarin and pancuronium.
Cats were narcotized (with chloralose, 50 mg per kg body weight, and urethane, 500 mg/kg, intraperitoneally) or decerebrated at the quadrigeminal bodies level. The lungs were ventilated artificially whenever necessary. Contractions of the anterior tibial muscle were recorded in isotonic concitions in response to electric stimulation of the peripheral part of n. peroneus with supramaximum pulses of 0.1 msec at a frequency of 0.1-100 Hz.

[3] = 0.08 micromole per kg intravenous

## CC[N+](CC)(CC)c1ccc(-c2ccc(-c3ccc([N+](CC)(CC)CC)cc3)cc2)cc1 [Tercuronium, p,p"-bis-triethylammonio-n-terphenyl dibenzenesulphonate]
[1]
  LD50: 0.09 µmol/kg
[1]; read-out: width of the muscle relaxing action (LD50/ED50)
  selectivity ratio: 1.5
[2]
  dependence of block on stimulation frequency: more manifest with increasing frequency of pulse stimuli; also recorded: tetanization of the motor nerve at a frequency of 50 to 100 Hz produces a pessimal reaction in the muscle
  influence of other agents on action: lessened by the action of neostigmin, succinylcholine, decamethonium, and acetylcholine and strengthened by α-tubocurarin
  mean duration of effect: eight
[2]; [3]
  block of nervomuscular conduction: 95-100%
  time to block following injection: 40 to 60 s
[2]; after injection
  time to complete restoration of muscle contractility: 10 ± 1.5 min
[2]; intravenous, 0.1 Hz
  dose blocking nervomuscular conduction (95-100 percent): 0.08 ± 0.002 micromole per kg
